Assay results from patent EP2799881A1, “Method for the determination of the presence of an antibiotic in a fluid” (DSM IP Assets B.V., priority 2013, dated 2014).

Test system: test organism
Assay: Microbial growth inhibition test (DSM Delvotest® SP-NT), detection limit of antibiotics in spiked milk, with tomatidine added to the test medium
Format: cell-based
Settings: 64 °C
Method: As a reference, a commercially available test system without any added steroidal glycoalkaloid aglycone (DSM Delvotest® SP-NT, plates containing 8 x 12 test wells) was used. In addition, four different test systems were prepared by modifying the reference test by adding the steroidal glycoalkaloid aglycone tomatidine to the test medium in a final concentration of 50 ppb, 100 ppb, 500 ppb or 2000 ppb. The detection limits of two different antibiotics were measured in the reference test and in the tests with modified medium containing different concentrations of tomatidine. The antibiotics that were measured were streptomycin and dihydrostreptomycin (DH-streptomycin) (both belonging to the aminoglycoside antibiotic family). Five different concentrations of each antibiotic (see Table 1) were measured. Hundred microliter antibiotic-free milk or hundred microliter milk spiked with the respective concentrations of antibiotic was added to the test medium (170 µl) and incubated at 64 °C in a water bath. The tests were visually determined at the point in time where a sample without antibiotic had changed colour from purple to yellow. At this point, the plates were cooled in an ice bath for 5 minutes. The cooled plates were scanned on a Delvo® scanner. The colour of each well was expressed as a Z-value; a purple colour gives rise to a positive Z-value, while a yellow colour has a negative Z-value. The Z-value of test results with samples without antibiotic is typically -5 < Z < -10. Detailed description of the scanning technology and the expression of the colour in Z-values are described in WO 03/033728. For the determination of the detection limit for each antibiotic, a dose-response function (Z-value versus concentration of antibiotic) was constructed. The detection limit is defined as the antibiotic concentration where the S-shaped dose-response function has a Z-value equal to the cut-off value.

[1] = Tomatidine concentration in test 0 ppb (reference Delvotest® SP-NT), cut-off Z-value 0
[2] = Tomatidine concentration in test 50 ppb, cut-off Z-value 0, tomatidine 50 ppb in test
[3] = Tomatidine concentration in test 100 ppb, cut-off Z-value 0, tomatidine 100 ppb in test
[4] = Tomatidine concentration in test 500 ppb, cut-off Z-value 0, tomatidine 500 ppb in test
[5] = Tomatidine concentration in test 2000 ppb, cut-off Z-value 0, tomatidine 2000 ppb in test

Row | SMILES | Detection limit [1] | Detection limit [2] | Detection limit [3] | Detection limit [4] | Detection limit [5]
1 | CN[C@@H]1[C@H](O[C@H]2[C@H](O[C@H]3[C@H](O)[C@@H](O)[C@H](NC(=N)N)[C@@H](O)[C@@H]3NC(=N)N)O[C@@H](C)[C@]2(O)CO)O[C@@H](CO)[C@H](O)[C@H]1O [DH-streptomycin, dihydrostreptomycin] | 1471 ppb | 1075 ppb | 365 ppb | 150 ppb | 115 ppb
2 | [H]/N=C(/N)N[C@H]1[C@H](O)[C@@H](O)[C@H](O[C@@H]2O[C@@H](C)[C@](O)(C=O)[C@H]2O[C@@H]2O[C@@H](CO)[C@H](O)[C@@H](O)[C@@H]2NC)[C@@H](N/C(N)=N\[H])[C@@H]1O [Streptomycin, streptomycin] | 2005 ppb | 1523 ppb | 398 ppb | 295 ppb | 79 ppb
